Entries after “also recorded” stand apart in the source; their conditions may differ. Read-outs that look alike come from different tables or passages of the source.

The subject of data set [1] is K18 and K8. The data set is described as follows: K8/K18 phosphorylation by mass spectrometry and immunoblot. The format is cell-based, human. A general note: Immunoblotting shows a protein as a band on a membrane.
Description: Cell and liver samples were solubilized using a Dounce homogenizer in 2% SDS-containing PBS supplemented with protease inhibitor (Thermo Fisher Scientific), then sonicated 80× (is pulse, intensity 70) (Fisher Scientific; Model: FB50). Lysates were pelleted (16,000 g×10 min/20° C.) and the supernatant was used for subsequent analysis. Equal amounts of protein were separated by SDS-polyacrylamide gel electrophoresis (PAGE) then transferred to polyvinylidene fluoride membranes (Bio-Rad) followed by immunoblotting. For immunoprecipitation, K18 R90C-transduced A549 cells were homogenized in PBS containing 1% Nonidet P-40 (NP40), protease inhibitors, and okadaic acid (Cayman Chemical; 1 μg/mL). […] For mass spectrometry, conjugated beads were suspended in PBS-buffered 8M urea to yield ˜6 g (in 60 μl urea-containing buffer). Samples were separated SDS-PAGE, followed by in-gel tryptic digestion then LC-MS/MS analysis. Peptides were identified by the Mass Spectrometry Facility at Rutgers University.
Data set [2] deals with K18 R90C mice. The data set is described as follows: Fas-induced liver injury. The format is in vivo, mouse. As to conditions: for hepatocyte keratin filament organization: PP2 1 mg/kg ip daily 4d; for increase in serum alanine aminotransferase (ALT) level after Fas treatment: single 1× pretreatment (PKC412 25 mg/kg, PP2 1 mg/kg, Vem 1 mg/kg), Fas antibody 0.25 μg/g.
Description: (§3) All mouse experiments were performed using a protocol approved by Rutgers University Institutional Animal Care and Use Committee. Previously described 4-6 weeks-old F22 male and female mice that express the human K18 R90C mutant (FVB/N background) were used. […] For immunofluorescence experiments, mouse livers were collected after CO2 euthanasia and embedded in optimum-cutting-temperature compound then stored (−80° C.). For Fas experiments, mice were treated by intraperitoneal administration of Fas antibody (0.15 μg/g body weight; BD Pharmingen). After 5 h, mice were sacrificed followed by collection of blood and liver. Livers were fixed with 10% formalin and analyzed by hematoxylin-eosin (H&E) staining or TUNEL assay. A hemorrhage score was calculated using QuPath (Quantitative Pathology & Bioimage Analysis) and ImageJ software. Apoptosis was estimated using TUNEL assay detection kit (ApopTag Peroxidase In Situ Apoptosis; Sigma Aldrich). Fluorescence images were acquired with the same exposure time and used to count the apoptotic nuclei. Serum alanine aminotransferase (ALT) levels were determined using the Liquid ALT Reagent Set (Pointe Scientific). For the acetaminophen (APAP) experiments, the liver histopathology score was determined using a 0-4 scoring system. Scoring was conducted by two scorers blinded to treatment conditions, and the average score was used.
Data set [3] has as its system A549 cells. As to conditions: PP2 10 μM, A549 cells expressing K18 R90C. The protocol:
(§1) A549 cells were cultured using Ham's F-12K medium (Thermo Fisher Scientific) supplemented with 10% fetal bovine serum (Sigma Aldrich) and 1% penicillin and 10,000 U/mL streptomycin (Life Technologies).

For data set [4] the following is noted: K18 R90C mice, PP2 1 mg/kg intraperitoneally daily for 4d, female and male.
Description: as §3
Data set [5] concerns K18 R90C mice.
Description: as §3
Data set [6] deals with GFP-K18 R90C lentivirus-transduced A549 cells. Briefly: Keratin dots-to-filaments assay (high-throughput screen and validation). Type of data set: cell-based, human. As to conditions: 5 μM, 48 h. How it is done:
The screening strategy was performed as described. In brief, human A549 lung adenocarcinoma cells (American Type Culture Collection) were seeded into six-well plates overnight and then transduced with K8 WT and either the GFP-tagged K18 WT or GFP-tagged K18 R90C lentivirus for 2d. A549 cells were selected for the screening assay because of their high transduction efficiency and readily visualized keratin filaments. The transduced cells were seeded into 384-well plates for 1d followed by addition of compounds from the Navigator Pathways (Center for Chemical Genomics, University of Michigan). After 48 h, cells were fixed counterstained with 4′,6-diamidino-2-phenylindole (DAPI; Invitrogen). Images were taken with the Image Xpress Micro XLS High Content Imaging System then analyzed using MetaXpress software (Molecular Devices). Compounds that decrease the number of keratin dots/cell and promote keratin filament formation were selected for secondary validation. 945 compounds from the Navigator Pathways library were screened. The library consists of several daughter sets that cover a range of pathways including Autophagy, Wnt, Epigenetics, Protein Kinases, Proteases, Redox, Cannabinoids, and Natural Products.

The subject of data set [7] is GFP-K18 R90C transduced A549 cells. The data set is described as follows: IFN-γ/FasL-induced apoptosis in cultured cells. Type of data set: cell-based, human. How it is done: as §1
A short description of data set [8]: PP2 content in liver and serum by UPLC-UV. The format is in vivo, mouse. How it is done:
Mice were sacrificed and livers were harvested at the indicated times. […] The column was washed once with 1 mL 100% methanol and eluted with 1 mL 5% NH4OH in methanol. […] The evaporated sample was resuspended in […] injection solvent [80% (5% ammonium hydroxide in methanol)+20% (10 mM ammonium formate+0.1% formic acid)], and […] was injected for ultra-performance liquid chromatography (UPLC). […] The supernatant was transferred to new tubes then processed further for SPE and UPLC exactly as carried out for the liver tissue extracts.
A Waters ACQUITY UPLC system equipped with Empower software and H-Class PLUS (CH-A) Core was used. […] The column was eluted at flow rate of 0.5 ml/min with linear gradients of solvents A and B (A, 10 mM ammonium formate, 0.1% formic acid in water; B, 0.1% formic acid in methanol).

The test system of data set [9] is desmoplakin (DSP). Briefly: Desmoplakin localization by immunofluorescence microscopy. Type of data set: cell-based, human. The settings on record: 1.2 mM CaCl2, vs vehicle-treated cells. How it is done:
Human keratinocytes grown on coverslips were fixed for 5 min in methanol (−20° C.) and 30 sec in acetone (−20° C.). Primary antibodies were diluted in 1% (w/v) BSA in TBS and incubated overnight at 4° C. in a humid chamber. The next day, coverslips were washed in TBS and incubated with the fluorophore-conjugated secondary antibody for 30 min at RT in the dark. DNA was stained with DAPI. Finally, coverslips were washed three times in TBS, rinsed briefly in aqua bidest and mounted with ProLong® Gold antifade reagent (Invitrogen). Images or Z-stacks were acquired with a confocal LSM 780 (Carl Zeiss) equipped with 40×/1.3 NA or 63×/1.4 NA oil immersion objectives and an AxioCam Mrm (Carl Zeiss). Image analysis and maximum intensity projections of Z-stacks was performed using Zen 2012 Blue software (Carl Zeiss). ImageJ was used for image processing.

For data set [10], the system named is K14.R125C keratinocytes. Briefly: Keratin aggregates by K5 immunofluorescence microscopy. The format is cell-based, human. As to conditions: 0.8 μM PKC412, 24 h; DMSO-treated cells mean=56%.
Description: Skin samples were obtained for diagnostic purposes. After written informed consent, primary keratinocytes were isolated from the remaining tissue. […] Keratinocytes were grown in low calcium Gibco™ Keratinocyte-SFM Medium supplemented with L-glutamine, EGF and BPE (LCM, Thermo Fisher Scientific) and cultured at 37° C., 5% CO2 and 90% humidity. To induce cell-cell contacts, LCM was changed to high calcium medium (HCM, 1.2 mM CaCl2) and cells were incubated for 24 h.
The test system of data set [11] is K14.R125C keratinocytes. The data set is described as follows: Epithelial sheet assay (dispase assay). Type of data set: cell-based, human. The settings on record: 1 μM, high calcium medium, 24 h, vs vehicle-treated monolayers. The protocol: (§2) Prior to the assay, cells were washed twice with 1.2 mM Ca^2+ PBS and incubated for 30 min at 37° C. with Dispase II (Roche Diagnostics, 9 mg/ml in 1:2 HEPES buffer:keratinocytes medium, 2 mM Ca^2+). Free-floating cell sheets were transferred to a 15 ml Falcon tube containing 5 ml 1.2 mM Ca^2+ PBS and subjected to 25 rpm overhead rotation (WiseMix overhead rotator, Witeg Labortechnik, Germany) for 1 min at room temperature. Image acquisition was done using Nikon SMZ 1500 binocular and image processing by ImageJ.

The test system of data set [12] is K14.R125G keratinocytes. The data set is described as follows: Epithelial sheet assay (dispase assay). The format is cell-based, human. The settings on record: 1 μM, high calcium medium, 24 h. The protocol: as §2
For data set [13] the following is noted: healthy volunteers, single oral dose (50 mg) as microemulsion; cited from earlier work.
Data set [14] concerns normal human keratinocytes (NHK). The data set is described as follows: Electrochemical impedance spectroscopy on multielectrode arrays. The format is cell-based. As to conditions: 24 h treatment; read-out: EC50 (impedance concentration response curve). From the text:
Skin samples were obtained for diagnostic purposes. After written informed consent, primary keratinocytes were isolated from the remaining tissue. Immortalized human control (NHK, normal human keratinocytes) and EBS keratinocytes (K14.R125C, K14.R125G, K14.N123S, K14.Y415H, K5.G138E/L175F and K5.E477D) were generated (Has et al. (2018) The Position of Targeted Next-generation Sequencing in Epidermolysis Bullosa Diagnosis. Acta Dermato-Venereologica 98:437-40; He Y, Maier K, Leppert J, Hausser I, Schwieger-Briel A, Weibel L, et al. (2016) Monoallelic Mutations in the Translation Initiation Codon of KLHL24 Cause Skin Fragility. Am J Hum Genet 99:1395-404). Keratinocytes were grown in low calcium Gibco™ Keratinocyte-SFM Medium supplemented with L-glutamine, EGF and BPE (LCM, Thermo Fisher Scientific) and cultured at 37° C., 5% CO2 and 90% humidity. […]
Impedimetric measurements on NHK and K14.R125C keratinocytes were performed as previously described. […] Impedance spectra (500 Hz-5 MHz) were automatically recorded every 30 min using the impedance measurement platform based on an Agilent 4294A high-precision impedance analyzer (Agilent Technologies) and the self-developed controlling software IMAT advanced. […] The cell signal (relative impedance) was determined with the self-developed analysis software IDAT v3.7.2.

In data set [15] the test system is K18 and K8. The settings on record: based on prior studies; cited from earlier work.
Data set [16] deals with RXXpS/pT AGC-kinase motif, P-K17 S44, P-DSP S165/S166, P-DSP S2849. The data set is described as follows: Immunoblot with phospho-epitope specific antibodies. Type of data set: cell-based, human. From the text:
Skin samples were obtained for diagnostic purposes. After written informed consent, primary keratinocytes were isolated from the remaining tissue. Immortalized human control (NHK, normal human keratinocytes) and EBS keratinocytes (K14.R125C, K14.R125G, K14.N123S, K14.Y415H, K5.G138E/L175F and K5.E477D) were generated (Has et al. (2018) The Position of Targeted Next-generation Sequencing in Epidermolysis Bullosa Diagnosis. Acta Dermato-Venereologica 98:437-40; He Y, Maier K, Leppert J, Hausser I, Schwieger-Briel A, Weibel L, et al. (2016) Monoallelic Mutations in the Translation Initiation Codon of KLHL24 Cause Skin Fragility. Am J Hum Genet 99:1395-404). Keratinocytes were grown in low calcium Gibco™ Keratinocyte-SFM Medium supplemented with L-glutamine, EGF and BPE (LCM, Thermo Fisher Scientific) and cultured at 37° C., 5% CO2 and 90% humidity. To induce cell-cell contacts, LCM was changed to high calcium medium (HCM, 1.2 mM CaCl2) and cells were incubated for 24 h.
To separate proteins under denaturing conditions, sodium dodecyl sulfate polyacrylamide gel electrophoresis (SDS-PAGE) was performed. Proteins were transferred to nitrocellulose membranes (VWR) using a semi-dry blotter (Armin Baack Labortechnik). Membranes were blocked using 3% (w/v) skim milk/TBS with Tween (TBST) or 3% (w/v) bovine serum albumin (BSA)/TBST and subsequently probed with the appropriate antibodies. Chemiluminescence was detected using ChemoCam Imager (Intas). Band intensity was quantified using ImageJ software.

Where [17] appears, read: K18 R90C-expressing A549 cells, mass spectrometry, PP2 vs DMSO.
[18] abbreviates: female mice, PP2 1 mg/kg ip 4d, Fas antibody 0.15 μg/g 5 h.
Where [19] appears, read: male mice, PP2 1 mg/kg ip 4d, Fas antibody 0.15 μg/g 5 h.
The mark [20] stands for this setting: PKC412 25 mg/kg ip daily 4d, male and female, Fas challenge.

Take `CC(C)(C)n1nc(-c2ccc(Cl)cc2)c2c(N)ncnc21` [PP2, 1-tert-butyl-3-(4-chlorophenyl)-1H-pyrazolo[3,4-d]pyrimidin-4-amine]: the “okadaic acid-induced hyperphosphorylation of K18/K8” value in data set [1] (A549 cells, PP2 5 μM 48 h, okadaic acid 1 μg/mL) is listed as “reversed”. In addition, the “decrease of global phosphorylation of K8” value in data set [1] (setting [17]) is given as 38%. The “decrease of global phosphorylation of K18” value in data set [1] (setting [17]) stood at 43%. For the same molecule, the “K18 S34 and K8 S432 phosphorylation” value in [1] (immunoblot, PP2 5 μM 48 h) is on record as “significant decrease”. The “liver TUNEL-positive cells” value in [2] (PP2 1 mg/kg ip 4d, Fas challenge) is listed as “fewer TUNEL-positive cells”. For the same molecule, the “SRC phosphorylation at stimulatory phospho-site Y416 in liver” value is “not female” in data set [2] (female livers) and “decreased” in [2] (male livers). Moreover, the “hepatocyte keratin filament organization” value is listed as “not female” in [2] (female livers) and “normalized keratin filaments” in data set [2] (male livers). Further, the ALT levels result in data set [2] (setting [18]) was “not female”; in data set [2] (setting [19]), “improved”. The figures for the parenchymal liver hemorrhage result in data set [2] (setting [18]) and in [2] (setting [19]) were “not female” and “improved”, respectively. Also, the “increase in serum alanine aminotransferase (ALT) level after Fas treatment” value in data set [2] (male mice) is recorded as “significantly reduced”. Further, in data set [3], the tolerability in cells result was “not well tolerated”. For the same molecule, the “body or liver weight” value in data set [4] is on record as “does not have an effect; also recorded: no significant effect”. In addition, in data set [5] (PP2 vs vehicle), the tested necrosis markers entry is “no significant difference”. In data set [5] (male compared with female PP2-treated mice), the histologic protection entry is “significant histologic protection”. Further, the “percentage of cells with keratin mutant aggregates” value in [6] is reported as “significantly decreased”. For the same molecule, in data set [7] (5 μM, no Fas challenge), the “induction of apoptosis under basal non-Fas condition (TUNEL)” value is recorded as “does not induce apoptosis”. In data set [7] (PP2 5 μM 48 h then IFN-γ and FasL), the “cleaved caspases 3 and 7” value was “decreased presence”. In addition, in [7] (PP2 5 μM 48 h then IFN-γ and FasL, without PP2 37%), the TUNEL-positive cells is recorded as 8%. In addition, the PP2 in serum entry in data set [8] (1 mg/kg, 1 h after administration) is recorded as “no detectable PP2”. Further, the PP2 in liver result in [8] (after 4 h, male or female mice) was “no detectable PP2”; in [8] (male and female FVB/N mice, 1 mg/kg, 1 h after administration), “detected”. In addition, the “PP2 levels in male mouse liver compared to female mouse liver” value in [8] (as a function of time) is “significantly higher”.

On to 4′-N-benzoylstaurosporine [PKC412], for which the “DSP at sites of cell-cell contacts” value in data set [9] is reported as “significant increase”. The “protection from Fas-induced liver injury, male versus female” value in data set [2] (PKC412 25 mg/kg ip daily 4d, Fas antibody 0.15 μg/g 5 h) is “equally protects both sexes”. Also, in [2] (setting [20]), the ALT levels entry is listed as “significantly reduced” and the extent of hemorrhage entry is listed as “significantly reduced”. For the same molecule, the “increase in serum alanine aminotransferase (ALT) level after Fas treatment” value in data set [2] (male mice) is listed as “significantly reduced”. In [10], the “keratin aggregate-containing cells (mean)” value was 13%. The “epithelial monolayer integrity after rotation” value in [11] is given as “remained fully intact”. The “fragility of mutant epithelial sheets” value in data set [12] is on record as “rescued fragility”. Moreover, the “tolerability, single oral dose” value in data set [13] was “well tolerated”. The EC50 in data set [14] was 84 nM. The “K18 S34 and K8 S432 phosphorylation” value in data set [15] is “no effect”. In addition, the “phosphorylation at AGC-kinase motif RXXpS/pT” value in data set [16] (EBS K14.R125C cells vs vehicle-treated) is given as “significant reduction in phosphorylation”. Further, in data set [16] (NHK and K14.R125C cells vs vehicle), the “K17 phosphorylation at P-S44” value is on record as “significantly reduced”. In addition, in [16] (vs DMSO-treated cells), the “DSP phosphorylation at S165 and S166” value is reported as “significantly reduced”; the “DSP phosphorylation at S2849” value was “significantly reduced”.

These data come from patent US20250387404A1, “FORMULATIONS AND METHODS FOR TREATING EPIDERMOLYSIS BULLOSA SIMPLEX AND RELATED CONDITIONS” (RUTGERS, THE STATE UNIVERSITY OF NEW JERSEY, priority 2022, published 2025).
